Results reported in BigSolDB 2.1.

O=[N+]([O-])/N=C1\NCCN1Cc1ccc(Cl)nc1
Conditions	solubility (mole fraction)
in 1,2-dichloroethane, 299.96 K	0.00987
in 1,2-dichloroethane, 302.87 K	0.0108
in 1,2-dichloroethane, 304.97 K	0.0116
in 1,2-dichloroethane, 310.08 K	0.0142
in 1,2-dichloroethane, 314.14 K	0.0161
in 1,2-dichloroethane, 317.43 K	0.0183
in 1,2-dichloroethane, 321.31 K	0.0213
in 1,2-dichloroethane, 325.67 K	0.0243
in 1,2-dichloroethane, 328.74 K	0.0271
in 1,2-dichloroethane, 331.34 K	0.0309
in 1,2-dichloroethane, 333.75 K	0.0345
in 1,2-dichloroethane, 336.91 K	0.0392
in 1,2-dichloroethane, 339.95 K	0.0442
in 1,2-dichloroethane, 342.81 K	0.049
in 1,2-dichloroethane, 345.2 K	0.0546
in 1,2-dichloroethane, 347.1 K	0.0612
in 2-butanone, 293.07 K	0.0159
in 2-butanone, 299.44 K	0.0192
in 2-butanone, 302.54 K	0.0213
in 2-butanone, 306.3 K	0.0238
in 2-butanone, 308.85 K	0.026
in 2-butanone, 311.24 K	0.0281
in 2-butanone, 314.22 K	0.0308
in 2-butanone, 318.19 K	0.0346
in 2-butanone, 320.83 K	0.0379
in 2-butanone, 323.87 K	0.0419
in 2-butanone, 326.73 K	0.046
in 2-butanone, 329.81 K	0.0504
in 2-butanone, 332.97 K	0.0573
in 2-butanone, 335.21 K	0.0617
in 2-butanone, 337.54 K	0.0678
in 2-butanone, 340.65 K	0.0749
in 2-butanone, 343.2 K	0.0823
in acetone, 294.64 K	0.012
in acetone, 300.05 K	0.0141
in acetone, 301.76 K	0.0148
in acetone, 305.05 K	0.0162
in acetone, 307.77 K	0.0175
in acetone, 310.17 K	0.0187
in acetone, 317.25 K	0.0232
in acetone, 319.14 K	0.0248
in acetone, 321.59 K	0.0265
in acetone, 327.89 K	0.0325
in acetone, 330.2 K	0.0353
in chloroform, 292.04 K	0.00848
in chloroform, 294.49 K	0.00916
in chloroform, 298.22 K	0.0102
in chloroform, 303.84 K	0.0115
in chloroform, 307.04 K	0.0123
in chloroform, 310.05 K	0.0132
in chloroform, 314.03 K	0.0143
in chloroform, 316.75 K	0.0153
in chloroform, 319.07 K	0.0167
in chloroform, 321.74 K	0.0183
in chloroform, 324.64 K	0.0198
in chloroform, 326.71 K	0.0215
in chloroform, 330.16 K	0.024
in dichloromethane, 293.97 K	0.0132
in dichloromethane, 295.96 K	0.0146
in dichloromethane, 298 K	0.0157
in dichloromethane, 300.05 K	0.0166
in dichloromethane, 302.6 K	0.0177
in dichloromethane, 303.99 K	0.0189
in dichloromethane, 305.96 K	0.0199
in dichloromethane, 307.8 K	0.0211
in dichloromethane, 309.6 K	0.0223
in dichloromethane, 311.66 K	0.0236
in dichloromethane, 313.14 K	0.0248
in dichloromethane, 313.93 K	0.0254
in ethanol, 298.69 K	0.000502
in ethanol, 301.12 K	0.000569
in ethanol, 305.66 K	0.000794
in ethanol, 308.87 K	0.001
in ethanol, 312.34 K	0.00118
in ethanol, 315.96 K	0.00136
in ethanol, 318.07 K	0.00151
in ethanol, 320.74 K	0.0017
in ethanol, 323.96 K	0.00197
in ethanol, 327.54 K	0.00225
in ethanol, 330.06 K	0.00251
in ethanol, 333.57 K	0.00289
in methanol, 293.79 K	0.00102
in methanol, 295.38 K	0.00111
in methanol, 299.81 K	0.00136
in methanol, 302.15 K	0.00156
in methanol, 305.86 K	0.00179
in methanol, 309.32 K	0.00211
in methanol, 312.62 K	0.00247
in methanol, 315.38 K	0.00283
in methanol, 320.59 K	0.00361
in methanol, 323.37 K	0.00413
in methanol, 328.11 K	0.0053
in methanol, 330.75 K	0.00598
in methanol, 333.34 K	0.00676
in water, 302.76 K	2.68e-05
in water, 308.62 K	3.94e-05
in water, 314.75 K	4.87e-05
in water, 324.15 K	8.35e-05
in water, 329.34 K	0.000119
in water, 330.75 K	0.000132
in water, 334.52 K	0.000169
in water, 340.44 K	0.000231
in water, 344.57 K	0.000287
in water, 346.87 K	0.000323
in water, 348.94 K	0.000363
